Values quoted from earlier work, collected in paper PMC4369175 (Journal of photochemistry and photobiology. B, Biology, 2015).
Where two headings read alike, the source gives them in different places.

What was measured:
[1] = standard value

In the case of `CC/N=c1\cc2oc3cc(NCC)c(C)cc3c(-c3ccccc3C(=O)OCC)c-2cc1C` [Rhodamine 6G], the “Φf of fluorescence standard” value ([1]; in ethanol) is listed as 0.95.
In the case of `CN(C)c1ccc2nc3ccc(=[N+](C)C)cc-3sc2c1` [methylene blue], the “Φf of fluorescence standard” value ([1]; in methanol) is listed as 0.03 and the “ΦΔ singlet oxygen quantum yield of the reference standard” value is listed as 0.52.
